System: pea plants cv. 'Carneval'
Test: Growth chamber experiment 2, pea 'Carneval' sprayed with 4-ME-IAA: peduncle/pedicel growth and seed yield, with or without heat stress (Tables P3-P12)
Format: in vivo, Pisum sativum L.
Description: For growth chamber experiment, seeds of ‘Carneval’ were planted at an approximate depth of 2.5 cm in 3-L plastic pots (4 seeds per pot and thinned to 2 plants per pot after approximately 2 weeks) in 1:1 Sunshine #4 potting mix (Sun Gro Horticulture, Vancouver, Canada) and sand. The experiment was arranged in a completely randomized design and grown at the University of Alberta in a growth chamber set at 19° C./17° C. (day/night) with a 16/8-h photoperiod under cool-white fluorescent lights (54W/835/HO high fluorescent bulbs, Phillips, Holland; 350 μE m^2 s^−2). For the heat stress treatment, plants were placed in a separate growth chamber with a 16/8-h photoperiod under cool-white fluorescent lights (F54/15/835/HO high fluorescent bulbs, Phillips, Holland) for 4 days where the temperature was cycled over a 24 hr period as follows: 33° C. air temperature for 6 hours per day (between 11:00 and 17:00 hrs) for 4 days during the light cycle; the remainder of the light cycle was maintained at a 22° C. air temperature; the dark cycle was maintained at 19° C. After the 4 day heat treatment, the plants were returned to the same growth chamber they were originally grown in, where they were taken to maturity.
For experiment 2, aqueous 4-methyl-indole-3-acetic acid (4-ME-IAA) solutions at 1×10^−7, 1×10^−6, 1×10^−5, or 1×10^−4 M in 0.1% (v/v) Tween 80 or aqueous 0.1% (v/v) Tween 80 (control) were applied as a spray to the entire plant to cover when the first flowering node of the main stem was near or at anthesis. In addition to the application at the timing cited above, one application of 4-ME-IAA at 1×10^−6 M or 1×10^−5 M was made when the floral buds were tightly clustered inside the stipule leaves at the stem apex (floral buds not visible outside of stipule leaves; designated the ‘Early’ treatment). In the heat stress treatment, the hormone or control treatment application was completed 16 hrs prior to the initiation of the first heat-stress cycle. The length and diameter (measured mid-length) of the lower and upper peduncles and pedicels of the inflorescence with two pods (or the lower peduncle and pedicel if a single pod node) at the first, second, third and fourth flowering nodes of the main stem of pea plants were determined for hormone-treated and control plants. Standard error of the mean (SE) was calculated for the means of all data for a measure of statistical significance in comparing treatment means.

[1] = 1×10^−7 M, first flowering node, heat stress (33° C. 6 h/day, 4 days)
[2] = 1×10^−7 M, first flowering node, no heat stress
[3] = 1×10^−7 M, fourth flowering node, heat stress (33° C. 6 h/day, 4 days)
[4] = 1×10^−7 M, fourth flowering node, no heat stress
[5] = 1×10^−7 M, heat stress (33° C. 6 h/day, 4 days)
[6] = 1×10^−7 M, second flowering node, heat stress (33° C. 6 h/day, 4 days)
[7] = 1×10^−7 M, second flowering node, no heat stress
[8] = 1×10^−7 M, third flowering node, heat stress (33° C. 6 h/day, 4 days)
[9] = 1×10^−7 M, third flowering node, no heat stress
[10] = Early treatment (tight floral bud stage) 1×10^−5 M, no heat stress
[11] = Early treatment (tight floral bud stage) 1×10^−6 M, no heat stress

Cc1cccc2[nH]cc(CC(=O)O)c12 [4-ME-IAA, 4-methyl-indole-3-acetic acid]
Upper Pedicel diameter [1]: 1.67 ± 0.06 mm
Upper Peduncle Length [1]: 18.11 ± 0.59 mm
Upper Peduncle diameter [1]: 1.45 ± 0.08 mm
Lower Pedicel Length [2]: 9.30 ± 0.26 mm
Lower Pedicel diameter [2]: 1.65 ± 0.04 mm
Lower Peduncle Length [2]: 67.10 ± 5.30 mm
Lower Peduncle diameter [2]: 1.59 ± 0.04 mm
Upper Pedicel Length [2]: 9.20 ± 0.20 mm
Upper Pedicel diameter [2]: 1.52 ± 0.03 mm
Upper Peduncle Length [2]: 19.80 ± 1.08 mm
Upper Peduncle diameter [2]: 1.27 ± 0.05 mm
Lower Pedicel Length [3]: 7.50 ± 0.56 mm
Lower Pedicel diameter [3]: 1.49 ± 0.05 mm
Lower Peduncle Length [3]: 38.67 ± 3.18 mm
Lower Peduncle diameter [3]: 1.58 ± 0.06 mm
Upper Pedicel Length [3]: 8.00 ± 0.58 mm
Upper Pedicel diameter [3]: 1.39 ± 0.15 mm
Upper Peduncle Length [3]: 17.00 ± 1.00 mm
Upper Peduncle diameter [3]: 1.30 ± 0.06 mm
Lower Pedicel Length [4]: 9.57 ± 0.37 mm
Lower Pedicel diameter [4]: 1.37 ± 0.03 mm
Lower Peduncle Length [4]: 44.00 ± 3.22 mm
Lower Peduncle diameter [4]: 1.37 ± 0.03 mm
Upper Pedicel Length [4]: 8.86 ± 0.55 mm
Upper Pedicel diameter [4]: 1.25 ± 0.04 mm
Upper Peduncle Length [4]: 18.57 ± 0.61 mm
Upper Peduncle diameter [4]: 1.12 ± 0.03 mm
Ratio of seed number on main stem to lateral stems [5]: 1.2 ± 0.2
Seed number plant [5]: 55.9 ± 5.9
Seed weight per per plant [5]: 15.3 ± 1.7 g
Weight per seed [5]: 0.273 ± 0.010 g
increase in seed number per plant over control (1×10^−7 M, mild heat stress): 30%
increase in seed weight per plant over control (1×10^−7 M, mild heat stress): 29%
Lower Pedicel Length [6]: 8.78 ± 0.28 mm
Lower Pedicel diameter [6]: 1.69 ± 0.06 mm
Lower Peduncle Length [6]: 62.00 ± 2.88 mm
Lower Peduncle diameter [6]: 1.69 ± 0.05 mm
Upper Pedicel Length [6]: 8.50 ± 0.22 mm
Upper Pedicel diameter [6]: 1.55 ± 0.07 mm
Upper Peduncle Length [6]: 17.00 ± 0.73 mm
Upper Peduncle diameter [6]: 1.41 ± 0.05 mm
Lower Pedicel Length [7]: 9.3 ± 0.30 mm
Lower Pedicel diameter [7]: 1.57 ± 0.05 mm
Lower Peduncle Length [7]: 55.80 ± 4.61 mm
Lower Peduncle diameter [7]: 1.57 ± 0.03 mm
Upper Pedicel Length [7]: 9.20 ± 0.29 mm
Upper Pedicel diameter [7]: 1.48 ± 0.04 mm
Upper Peduncle Length [7]: 19.00 ± 0.76 mm
Upper Peduncle diameter [7]: 1.25 ± 0.02 mm
Lower Pedicel Length [8]: 8.13 ± 0.40 mm
Lower Pedicel diameter [8]: 1.70 ± 0.06 mm
Lower Peduncle Length [8]: 46.13 ± 2.75 mm
Lower Peduncle diameter [8]: 1.61 ± 0.06 mm
Upper Pedicel Length [8]: 8.20 ± 0.37 mm
Upper Pedicel diameter [8]: 1.46 ± 0.11 mm
Upper Peduncle Length [8]: 18.60 ± 0.98 mm
Upper Peduncle diameter [8]: 1.31 ± 0.07 mm
Lower Pedicel Length [9]: 9.44 ± 0.18 mm
Lower Pedicel diameter [9]: 1.46 ± 0.04 mm
Lower Peduncle Length [9]: 48.44 ± 2.5 mm
Lower Peduncle diameter [9]: 1.42 ± 0.05 mm
Upper Pedicel Length [9]: 9.00 ± 0.33 mm
Upper Pedicel diameter [9]: 1.26 ± 0.05 mm
Upper Peduncle Length [9]: 18.38 ± 1.10 mm
Upper Peduncle diameter [9]: 1.07 ± 0.03 mm
number of inflorescences with two pods at the fourth flowering node (1×10^−7 to 1×10^−4 M, no heat stress, control 10%): 70-90 % of the plants
number of inflorescences with 2 pods at the third flowering node (1×10^−7 to 1×10^−4 M, no heat stress, control 20%): 80-100 % of the plants
increase in seed yield vs control ('Early' treatment 1×10^−6 M): 109%
Ratio of seed number on main stem to lateral stems [10]: 1.5 ± 0.2
Seed number per plant [10]: 64.8 ± 5.2
Seed weight per plant [10]: 16.2 ± 1.3 g
Weight per seed [10]: 0.252 ± 0.006 g
Ratio of seed number on main stem to lateral stems [11]: 1.6 ± 0.1
Seed number per plant [11]: 73.8 ± 5.9
Seed weight per plant [11]: 18.2 ± 1.4 g
Weight per seed [11]: 0.248 ± 0.006 g
